Values quoted from earlier work, collected in PMC5407626 (PLoS ONE, 2017).

Columns and labels:
RARβ = target: T1, RARβ (Homo sapiens, UniProt P10826); parameters: method as in Invitrogen; conditions: RARβ agonist assay; ref Invitrogen; read-out: EC50 from Invitrogen; cited from earlier work
T1 sequence (P10826 183-417 limits assumed): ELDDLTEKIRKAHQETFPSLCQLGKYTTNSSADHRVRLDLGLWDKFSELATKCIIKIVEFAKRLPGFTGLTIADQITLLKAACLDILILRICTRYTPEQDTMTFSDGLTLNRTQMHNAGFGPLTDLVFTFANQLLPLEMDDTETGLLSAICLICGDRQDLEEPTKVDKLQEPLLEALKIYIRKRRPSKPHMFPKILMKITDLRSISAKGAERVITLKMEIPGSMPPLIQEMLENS

[1] = humans; cited from earlier work
RBP4 = RBP4 (Homo sapiens, UniProt P02753); parameters: method as in PMID 16303925; conditions: cited from earlier work

Compound	EC50 (RARβ)	metabolite level as % of plasma levels of 4-HPR [1]	affinity for RBP4 lower than for fenretinide or retinol (RBP4)	Kd (RBP4; read-out: affinity for RBP4)
CC1=C(/C=C/C(C)=C/C=C/C(C)=C/C(=O)Nc2ccc(O)cc2)C(C)(C)CCC1 [fenretinide, N-[4-hydroxyphenyl]retinamide]	220 nM			
COc1ccc(NC(=O)/C=C(C)/C=C/C=C(C)/C=C/C2=C(C)CCCC2(C)C)cc1 [MPR, N-[4-methoxyphenyl]retinamide]		~ 45%	2 fold	~100 nM
